As usually defined, the IC50 is the concentration at which inhibition is half-maximal.

The structures appear in SMILES notation. Some results are limits rather than exact numbers.

Results on 32 molecules are retold here after US10752624B2, “Kinase inhibitors” (Origenis GmbH, priority 2012, dated 2020).

The experiment deals with LRRK2 (Homo sapiens, UniProt Q5S007). In words: LRRK2-LRRK2 G2019S-Assay (LanthaScreen Eu Kinase Binding Assay). The conditions noted are these: 5 nM LRRK2, 10 nM tracer 236, 2 nM EU-Anti-GST antibody, 1 h at RT; read-out: LRRK2 Activities: IC50. How it is done: In the assay LanthaScreen™ Eu Kinase Binding Assay by Invitrogen Corporation (Carlsbad) the effect of invention of a compound on the phosphorylation is determined by measurement of fluorescence intensity emission ratio based on the binding and displacement of a proprietary, Alexa Fluor® 647-labeled, ATP-competitive kinase inhibitor scaffold (kinase tracer) to the kinase of interest. Binding of the tracer to the kinase is detected using a europium-labeled anti-tag antibody, which binds to the kinase of interest. Simultaneous binding of both the tracer and antibody to the kinase results in a high degree of FRET (fluorescence resonance energy transfer) from the europium (Eu) donor fluorophore to the Alexa Fluor® 647 acceptor fluorophore on the kinase tracer. Binding of an inhibitor to the kinase competes for binding with the tracer, resulting in a loss of FRET. The fluorescence intensity ratio is directly proportional to the amount of peptide phosphorylation.
LRRK2, sequence (Q5S007 970-2527 limits assumed): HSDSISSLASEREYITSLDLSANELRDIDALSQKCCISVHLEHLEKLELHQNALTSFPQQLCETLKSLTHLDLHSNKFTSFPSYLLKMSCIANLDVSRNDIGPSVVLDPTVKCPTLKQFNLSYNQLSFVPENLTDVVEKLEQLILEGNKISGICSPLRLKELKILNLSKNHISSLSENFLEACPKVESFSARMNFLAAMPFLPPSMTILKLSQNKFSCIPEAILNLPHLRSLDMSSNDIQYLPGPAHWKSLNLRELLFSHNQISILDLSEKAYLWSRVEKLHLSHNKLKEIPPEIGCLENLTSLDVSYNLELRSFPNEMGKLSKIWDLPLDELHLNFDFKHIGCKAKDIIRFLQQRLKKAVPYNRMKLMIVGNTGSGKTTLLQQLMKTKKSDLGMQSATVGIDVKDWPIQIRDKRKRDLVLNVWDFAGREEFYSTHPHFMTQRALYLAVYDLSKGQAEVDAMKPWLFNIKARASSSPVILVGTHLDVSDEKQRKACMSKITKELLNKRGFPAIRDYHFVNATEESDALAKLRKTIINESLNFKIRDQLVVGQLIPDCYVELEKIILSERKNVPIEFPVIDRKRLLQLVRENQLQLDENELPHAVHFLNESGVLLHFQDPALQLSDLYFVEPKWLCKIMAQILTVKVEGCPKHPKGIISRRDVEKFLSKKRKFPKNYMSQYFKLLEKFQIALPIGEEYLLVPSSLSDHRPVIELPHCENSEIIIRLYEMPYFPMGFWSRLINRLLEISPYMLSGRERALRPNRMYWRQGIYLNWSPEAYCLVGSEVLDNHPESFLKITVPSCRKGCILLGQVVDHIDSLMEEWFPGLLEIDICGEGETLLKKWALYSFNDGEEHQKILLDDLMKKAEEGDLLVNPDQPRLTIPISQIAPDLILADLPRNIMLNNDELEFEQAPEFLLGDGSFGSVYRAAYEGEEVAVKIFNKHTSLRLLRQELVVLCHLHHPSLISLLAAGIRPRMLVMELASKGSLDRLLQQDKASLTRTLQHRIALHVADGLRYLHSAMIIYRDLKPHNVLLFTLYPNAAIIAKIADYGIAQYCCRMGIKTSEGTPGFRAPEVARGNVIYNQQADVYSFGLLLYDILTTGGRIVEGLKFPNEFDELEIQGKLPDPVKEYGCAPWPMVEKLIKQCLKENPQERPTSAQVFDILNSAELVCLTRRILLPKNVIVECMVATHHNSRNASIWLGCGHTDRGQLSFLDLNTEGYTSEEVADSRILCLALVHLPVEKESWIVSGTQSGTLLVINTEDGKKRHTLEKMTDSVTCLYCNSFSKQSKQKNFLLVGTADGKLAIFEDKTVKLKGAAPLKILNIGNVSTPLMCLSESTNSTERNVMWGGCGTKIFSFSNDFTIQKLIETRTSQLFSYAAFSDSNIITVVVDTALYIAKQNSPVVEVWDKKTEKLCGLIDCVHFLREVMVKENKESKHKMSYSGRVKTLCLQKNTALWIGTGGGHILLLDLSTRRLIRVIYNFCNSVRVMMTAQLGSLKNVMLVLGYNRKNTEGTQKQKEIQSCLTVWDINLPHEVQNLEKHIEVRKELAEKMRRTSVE
To the wells of an 384 well small volume plate (Greiner, Frickenhausen) are added (i) the compound under test in 5% DMSO/distilled water (5 μl), (ii) 5 μl of the kinase antibody mixture resulting in a final concentration 5 nM LRRK2 or their mutants, 2 nM EU-Anti-GST antibody in 1× kinase buffer A. The reaction was started with addition of (iii) 5 μl resulting in a final concentration of 10 nM tracer 236. The assay plate was incubated at RT for 1 h and fluorescence intensity readings were collected using a TECAN M1000 at two wavelengths of λex 340/λem 615 nm and λex 340/λem 665 nm with a delay time of 100 μs and an integration time of 200 μs after 60 minutes. The emission ratio was calculated by division of the acceptor/tracer emission ([…]) by the antibody/donor emission ([…]). The inhibitor concentration was plotted versus the emission ratio to determine the IC50 using XLFit 5.0 (IDBS, Guildford) to fit to a sigmoidal dose response curve with a variable slope.
In the case of `COc1ccc2nc(Nc3cnn(C4CCN(C(C)=O)CC4)c3)c3n[nH]cc3c2c1` [Example 112, 1-(4-(4-((8-methoxy-2H-pyrazolo[3,4-c]quinolin-4-yl)amino)-1H-pyrazol-1-yl)piperidin-1-yl)ethan-1-one], the IC50 lay in the range of 10 to 100 nM.
In the case of `COc1ccc2nc(Nc3ccc(N4CCC(O)CC4)cc3)c3[nH]ncc3c2c1` [Example 296, 1-(4-((8-methoxy-3H-pyrazolo[3,4-c]quinolin-4-yl)amino)phenyl)piperidin-4-ol], the IC50 was 10 to 100 nM.
For the molecule `COCCn1cc(Nc2nc3ccc(S(C)(=O)=O)cc3c3cn[nH]c23)c(C#N)n1` [Example 274, 1-(2-methoxyethyl)-4-((8-(methylsulfonyl)-3H-pyrazolo[3,4-c]quinolin-4-yl)amino)-1H-pyrazole-3-carbonitrile], the IC50 was 10 to 100 nM.
For the molecule `CSc1ccc2nc(Nc3ccc(N4CCOCC4)cc3)c3[nH]ncc3c2c1` [Example 43, 8-(methylthio)-N-(4-morpholinophenyl)-3H-pyrazolo[3,4-c]quinolin-4-amine], the IC50 is 10 to 100 nM.
Take `COCCn1cc(Nc2nc3ccc(S(C)(=O)=O)cc3c3cn[nH]c23)c(C)n1` [Example 209, N-(1-(2-methoxyethyl)-3-methyl-1H-pyrazol-4-yl)-8-(methylsulfonyl)-3H-pyrazolo[3,4-c]quinolin-4-amine]: the IC50 fell in the range of 10 to 100 nM.
For the molecule `COc1ccc(Nc2nc3ccc(SC)cc3c3cn[nH]c23)cc1OC` [Example 45, N-(3,4-dimethoxyphenyl)-8-(methylthio)-3H-pyrazolo[3,4-c]quinolin-4-amine], the IC50 fell in the range of 100 to 1000 nM.
For the molecule `C[C@H]1CCCN1c1cccc(Nc2nc3ccc(S(C)(=O)=O)cc3c3c[nH]nc23)c1` [Example 337, (S)—N-(3-(2-methylpyrrolidin-1-yl)phenyl)-8-(methylsulfonyl)-2H-pyrazolo[3,4-c]quinolin-4-amine], the IC50 was 100 to 1000 nM.
Regarding `COc1ccc(Nc2nc3ccc(C)cc3c3cn[nH]c23)cc1OC` [Example 72, N-(3,4-dimethoxyphenyl)-8-methyl-3H-pyrazolo[3,4-c]quinolin-4-amine], the IC50 was in the range of 100 to 1000 nM.
Turning to `CN1CCN(c2ccc(Nc3nc4cccc(S(C)(=O)=O)c4c4cn[nH]c34)cn2)CC1` [Example 100, N-(6-(4-methylpiperazin-1-yl)pyridin-3-yl)-9-(methylsulfonyl)-3H-pyrazolo[3,4-c]quinolin-4-amine], the concentration for half-maximal inhibition (IC50) was in the range of 100 to 1000 nM.
Consider `COc1cccc2nc(Nc3ccc(N4CCN(C(C)(C)C)CC4)cc3)c3[nH]ncc3c12` [Example 38, N-(4-(4-(tert-butyl)piperazin-1-yl)phenyl)-9-methoxy-3H-pyrazolo[3,4-c]quinolin-4-amine], for which the IC50 fell in the range of 10 to 100 nM.
As for `COc1ccc2nc(Nc3cnn(C4CCN(C)CC4)c3)c3n[nH]cc3c2c1` [Example 111, 8-methoxy-N-(1-(1-methylpiperidin-4-yl)-1H-pyrazol-4-yl)-2H-pyrazolo[3,4-c]quinolin-4-amine], the IC50 was 10 to 100 nM.
Take `COc1cccc2nc(Nc3cnn(C4CCNCC4)c3Cl)c3[nH]ncc3c12` [Example 254, N-(5-chloro-1-(piperidin-4-yl)-1H-pyrazol-4-yl)-9-methoxy-3H-pyrazolo[3,4-c]quinolin-4-amine]: the IC50 is below 10 nM.
`CC(C)(C)N1CCN(c2ccc(Nc3nc4cccc(S(C)(=O)=O)c4c4cn[nH]c34)cc2)CC1` [Example 95, N-(4-(4-(tert-butyl)piperazin-1-yl)phenyl)-9-(methylsulfonyl)-3H-pyrazolo[3,4-c]quinolin-4-amine]: the IC50 is 100 to 1000 nM.
Regarding `COc1cccc2nc(Nc3cccc(CN(C)C)c3)c3[nH]ncc3c12` [Example 28, N-(3-((dimethylamino)methyl)phenyl)-9-methoxy-3H-pyrazolo[3,4-c]quinolin-4-amine], the IC50 was in the range of 100 to 1000 nM.
For the molecule `COc1ccc2nc(Nc3cccc(C(=O)N4CCOCC4)c3)c3n[nH]cc3c2c1` [Example 7, (3-((8-methoxy-2H-pyrazolo[3,4-c]quinolin-4-yl)amino)phenyl)(morpholino)methanone], the IC50 lay in the range of 100 to 1000 nM.
For `COc1cccc2nc(Nc3ccc(C(=O)N4CCC(N5CCN(C)CC5)CC4)cc3)c3[nH]ncc3c12` [Example 39, (4-((9-methoxy-3H-pyrazolo[3,4-c]quinolin-4-yl)amino)phenyl)(4-(4-methylpiperazin-1-yl)piperidin-1-yl)methanone], the concentration for half-maximal inhibition (IC50) fell in the range of 10 to 100 nM.
For the molecule `COc1cccc2nc(Nc3cnn(C(C)C)c3C(N)=O)c3[nH]ncc3c12` [Example 266, 1-isopropyl-4-((9-methoxy-3H-pyrazolo[3,4-c]quinolin-4-yl)amino)-1H-pyrazole-5-carboxamide], the IC50 was 10 to 100 nM.
Turning to `COCCn1cc(Nc2nc3cccc(OC)c3c3c[nH]nc23)cn1` [Example 156, 9-methoxy-N-(1-(2-methoxyethyl)-1H-pyrazol-4-yl)-2H-pyrazolo[3,4-c]quinolin-4-amine], the IC50 was below 10 nM.
As for `COc1cccc2nc(Nc3ccc(CN4CCOCC4)cc3)c3[nH]ncc3c12` [Example 15, 9-methoxy-N-(4-(morpholinomethyl)phenyl)-3H-pyrazolo[3,4-c]quinolin-4-amine], the IC50 is 10 to 100 nM.
Turning to `COCCn1ncc(Nc2nc3ccc(S(C)(=O)=O)cc3c3cn[nH]c23)c1C(F)(F)F` [Example 272, N-(1-(2-methoxyethyl)-5-(trifluoromethyl)-1H-pyrazol-4-yl)-8-(methylsulfonyl)-3H-pyrazolo[3,4-c]quinolin-4-amine], the IC50 lay in the range of 10 to 100 nM.
In the case of `CS(=O)(=O)c1ccc2c(c1)nc(Nc1cnn(C3CCOCC3)c1)c1[nH]ncc12` [Example 160, 7-(methylsulfonyl)-N-(1-(tetrahydro-2H-pyran-4-yl)-1H-pyrazol-4-yl)-3H-pyrazolo[3,4-c]quinolin-4-amine], the IC50 is below 10 nM.
As to `COc1ccc2nc(Nc3cnn(-c4ccccn4)c3)c3n[nH]cc3c2c1` [Example 319, 8-methoxy-N-(1-(pyridin-2-yl)-1H-pyrazol-4-yl)-2H-pyrazolo[3,4-c]quinolin-4-amine], the IC50 is 10 to 100 nM.
As to `Cc1nn(C(C)C)cc1Nc1nc2ccc(S(C)(=O)=O)cc2c2cn[nH]c12` [Example 217, N-(1-isopropyl-3-methyl-1H-pyrazol-4-yl)-8-(methylsulfonyl)-3H-pyrazolo[3,4-c]quinolin-4-amine], the IC50 was 10 to 100 nM.
In the case of `CS(=O)(=O)c1ccc2c(c1)nc(Nc1ccc(C(=O)N3CCOCC3)c(F)c1)c1[nH]ncc12` [Example 174, (2-fluoro-4-((7-(methylsulfonyl)-3H-pyrazolo[3,4-c]quinolin-4-yl)amino)phenyl)(morpholino)methanone], the IC50 lay within 100 to 1000 nM.
For `CS(=O)(=O)c1ccc2c(c1)nc(Nc1cnn(C3CCOCC3)c1)c1[nH]ncc12` [Example 169, 7-(methylsulfonyl)-N-(1-(tetrahydro-2H-pyran-4-yl)-1H-pyrazol-4-yl)-3H-pyrazolo[3,4-c]quinolin-4-amine] the value was 10 to 100 nM; for `COc1cccc2nc(Nc3ccc(C(=O)N4CCCC4)cc3)c3[nH]ncc3c12` [Example 61, (4-((9-methoxy-3H-pyrazolo[3,4-c]quinolin-4-yl)amino)phenyl)(pyrrolidin-1-yl)methanone], 10 to 100 nM; for `CN1CCC(n2cc(Nc3nc4ccc(S(C)(=O)=O)cc4c4cn[nH]c34)cn2)CC1` [Example 154, N-(1-(1-methylpiperidin-4-yl)-1H-pyrazol-4-yl)-8-(methylsulfonyl)-3H-pyrazolo[3,4-c]quinolin-4-amine], below 10 nM.
Turning to `COc1ccc2nc(Nc3cnn(C(C)(C)C(N)=O)c3)c3n[nH]cc3c2c1` [Example 164, 2-(4-((8-methoxy-2H-pyrazolo[3,4-c]quinolin-4-yl)amino)-1H-pyrazol-1-yl)-2-methylpropanamide], the IC50 fell in the range of 100 to 1000 nM.
Take `COc1cc(C(=O)N2CCOCC2)ccc1Nc1nc2cc(S(C)(=O)=O)ccc2c2cn[nH]c12` [Example 194, (3-methoxy-4-((7-(methylsulfonyl)-3H-pyrazolo[3,4-c]quinolin-4-yl)amino)phenyl)(morpholino)methanone]: the IC50 was in the range of 100 to 1000 nM.
Regarding `CS(=O)(=O)c1cccc2nc(Nc3ccc(C(=O)N4CCOCC4)cc3)c3[nH]ncc3c12` [Example 94, (4-((9-(methylsulfonyl)-3H-pyrazolo[3,4-c]quinolin-4-yl)amino)phenyl)(morpholino)methanone], the IC50 lay in the range of 100 to 1000 nM.
In the case of `COc1ccc2nc(Nc3cccc(CN(C)C)c3)c3n[nH]cc3c2c1` [Example 5, N-(3-((dimethylamino)methyl)phenyl)-8-methoxy-2H-pyrazolo[3,4-c]quinolin-4-amine], the IC50 was in the range of 100 to 1000 nM.
For `COc1nn(C2CCN(C(C)(C)C)CC2)cc1Nc1nc2cccc(OC)c2c2cn[nH]c12` [Example 225, N-(1-(1-(tert-butyl)piperidin-4-yl)-3-methoxy-1H-pyrazol-4-yl)-9-methoxy-3H-pyrazolo[3,4-c]quinolin-4-amine], the IC50 was 10 to 100 nM.
